Assay results from article PMC6449294, “SNAPshots of the MCHR1: a Comparison Between the PET-Tracers [^18F]FE@SNAP and [^11C]SNAP-7941” (Molecular Imaging and Biology, 2018).
Entries after “also recorded” stand apart in the source; their conditions may differ.

Legend:
P-gp/BCRP = experiment: Small animal PET of rat brain, vehicle vs pretreatment with P-gp/BCRP inhibitor TQD; format: in vivo; details: for increase of brain uptake in TQD blocking group vs vehicle: rats, TQD 15 mg/kg 60 min before radiotracer, PET
Description: Ten-week-old male rats (412 ± 58 g, Sprague-Dawley, HIM:OFA, n = 30) and 12-week-old male mice (24 ± 6 g, BALB/cAnNRj, n = 7) were purchased from the Division of Laboratory Animal Science and Genetics, Himberg, Austria. Animals were kept under conventional housing conditions (22 ± 1 °C; 40–70 % humidity) with food and water supply ad libitum and 12-h day/night cycle. All animals were treated according to the European Union rules on animal care and respective animal experiments were approved by the Austrian Ministry of Sciences, Research and Economy (BMWFW-66.009/0029-WF/V/3b/20159). For in vivo imaging, animals were anesthetized using 1.5–2 % isoflurane mixed with oxygen (1.5–2 l/min) to avoid movement during the examination. Anesthesia as well as vital parameters were monitored during the time interval of PET acquisition. Radioligands and non-labeled compounds were administered intravenously via the lateral tail vein.
Anesthetized rats and mice were immobilized in a multimodal animal carrier unit (MACU; medres®—medical research GmbH, Cologne, Germany). The body temperature was preserved at 37 °C throughout the whole experiment. Rats received either [^11C]SNAP-7941 or [^18F]FE@SNAP, followed by an injection of (±)-SNAP-7941 (15-mg/kg body weight; displacement study; n = 4 for each radiotracer) or the respective solvent serving as the vehicle (baseline condition; n = 4 for each radiotracer). The MCHR1 antagonist, (±)-SNAP-7941, and the vehicle were administered either 15 ([^11C]SNAP-7941) or 20 min ([^18F]FE@SNAP) after the radiotracer application via the lateral tail vein. To investigate a potential binding to the P-glycoprotein (P-gp) and/or breast cancer resistance protein (BCRP) brain efflux transporter system, rats as well as mice were pretreated either with the P-gp/BCRP inhibitor TQD (15 mg/kg body weight; P-gp/BCRP inhibition group; rats: n = 4 for each radiotracer; mice: n = 4 for [^18F]FE@SNAP) or the respective solvent (baseline condition; rats: n = 3 for each radiotracer; mice: n = 3 for [^18F]FE@SNAP)). […]

MCHR1 [1] = molecular target: T1, MCHR1 (Rattus norvegicus, UniProt P97639); experiment: Ex vivo biodistribution, vehicle vs displacement with (±)-SNAP-7941; format: in vivo; details: 15 mg/kg (±)-SNAP-7941
T1 construct: from tissue; host or cells: living Sprague-Dawley rats (PET) and their organs after sacrifice
From the text: After the imaging studies, the animals were sacrificed by decapitation; blood and tissues were removed and collected in tubes, weighed, and subjected to radioactivity measurements in a Gamma Counter (2480 WIZARD^2, PerkinElmer, Waltham, MA, USA). Values were normalized to the applied dose, the organ, and body weight and expressed as the standardized uptake value (SUV [g/ml]).

[2] = Ex vivo metabolites in rat whole blood (radio-HPLC); details: for Metabolism in rat blood: ex vivo, result in words
Description: For the analysis of potential radiometabolites, blood samples (50–80 μl) from rats were withdrawn at 10 and 45 min for [^11C]SNAP-7941 and at 10, 30, and 60 min for [^18F]FE@SNAP and immediately subjected to the equivalent amount of acetonitrile, homogenized, and stored on ice before processing. Additionally, [^18F]FE@SNAP was administered to three rats, which were sacrificed after 45 min. Whole brains were harvested and homogenized with equivalent amounts (500–800 μl) of acetonitrile and 0.9 % saline solution using an ULTRA-TURRAX® (T25 basic, IKA Laboratory Equipment, Staufen, Germany). Subsequently, blood and brain were centrifuged (23,000 ×g, 4 min, 4 °C; Hettich Universal 30RF, Tuttlingen, Germany), and the obtained supernatant was analyzed by an analytical HPLC equipped with a radioactivity detector (radio-HPLC) (stationary phase: Chromolith® Performance RP-18e, 100–4.6 mm; precolumn: Chromolith® Guard Cartridge RP-18e, 5–4.6 mm; Merck, Darmstadt, Germany), mobile phase: (water/acetic acid 97.5/2.5 v/v; 2.5 g/l ammonium acetate; pH 3.5)/acetonitrile 70/30 v/v; flow: 1 ml/min, λ = 254 nm). The ratio between metabolite and intact radiotracer was calculated using quantitative HPLC analysis.

MCHR1 [3] = molecular target: MCHR1; parameters: method as in PMID 28808288; details: previous experiments; read-out: Affinity to MCHR1 (Ki); cited from earlier work
[4] = parameters: method as in earlier work; details: previous studies; ref 30 and 34 (table), 32 and 36; cited from earlier work
[5] = 10 min after radiotracer application

T1 sequence (P97639 whole entry): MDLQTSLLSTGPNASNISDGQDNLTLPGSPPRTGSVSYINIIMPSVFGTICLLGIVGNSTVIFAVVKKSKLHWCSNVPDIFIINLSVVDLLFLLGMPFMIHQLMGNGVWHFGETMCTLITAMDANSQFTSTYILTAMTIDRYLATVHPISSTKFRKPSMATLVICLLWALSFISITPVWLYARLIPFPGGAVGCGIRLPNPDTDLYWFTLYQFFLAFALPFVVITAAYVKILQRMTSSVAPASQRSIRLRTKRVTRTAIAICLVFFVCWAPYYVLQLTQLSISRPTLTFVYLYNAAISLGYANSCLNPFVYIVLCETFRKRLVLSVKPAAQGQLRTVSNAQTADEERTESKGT

Row | SMILES | P-gp/BCRP substrate status (P-gp/BCRP; rat brain PET after TQD pretreatment, result in words) | increase of brain uptake in TQD blocking group vs vehicle (P-gp/BCRP) | difference in colon uptake between vehicle and displacement groups (MCHR1 [1]) | difference in eye uptake between vehicle and displacement groups (MCHR1 [1]) | difference in pancreas uptake between vehicle and displacement groups (MCHR1 [1]) | overall biodistribution: uptake in target regions after displacement (MCHR1 [1]) | intact tracer in rat whole blood [2, 5] | intact tracer in rat whole blood ([2]; 45 min) | Metabolism in rat blood [2] | Ki (MCHR1 [3]) | Lipophilicity (logD) [4] | intact tracer in rat whole blood ([2]; 30 min after administration) | intact tracer in rat whole blood ([2]; 60 min)
1 | COCC1=C(C(=O)O[11CH3])C(c2ccc(F)c(F)c2)N(C(=O)NCCCN2CCC(c3cccc(NC(C)=O)c3)CC2)C(=O)N1 (stereo not shown) [[^11C]SNAP-7941] | P-gp/BCRP substrate | 3.04 times | Statistically significant differences | Statistically significant differences | Statistically significant differences | decreased uptake | 93.52 ± 0.1% | 93.74 ± 6.2% | high metabolic stability; also recorded: Stable | 3.91 ± 0.74 nM | 3.29 ± 0.01 |  | 
2 | COCC1=C(C(=O)OCC[18F])C(c2ccc(F)c(F)c2)N(C(=O)NCCCN2CCC(c3cccc(NC(C)=O)c3)CC2)C(=O)N1 (stereo not shown) [[^18F]FE@SNAP] |  | 2.45 times | no statistically significant difference | significant differences | significant differences | decreased uptake | 38.40 ± 2.3% |  | Rapidly metabolized | 9.98 ± 1.12 nM | 3.83 ± 0.1 | 31.59 ± 4.0% | 14.42 ± 3.3%
